# Experimental data as given in ChEMBL document CHEMBL1201862, “PubChem BioAssay data set” (2004).
# Activity calls are given as the source filed them.
# Key:
# [1] = target: ADP-ribosylation factor GTPase-activating protein 1 (Rattus norvegicus, UniProt Q62848); experiment: Fluorescence polarization-based biochemical high throughput dose response screening assay to identify inhibitors of ADP-ribosylation factor GTPase activating protein 1 (ARFGAP1).; type: functional
# [2] = target: T1, High affinity choline transporter 1 (Homo sapiens, UniProt Q9GZV3); experiment: human choline transporter blockers, potency – cell-based, 5-point CRC, membrane potential dye, dose response (AID 504840); type: functional
# T1 sequence (Q9GZV3 whole entry): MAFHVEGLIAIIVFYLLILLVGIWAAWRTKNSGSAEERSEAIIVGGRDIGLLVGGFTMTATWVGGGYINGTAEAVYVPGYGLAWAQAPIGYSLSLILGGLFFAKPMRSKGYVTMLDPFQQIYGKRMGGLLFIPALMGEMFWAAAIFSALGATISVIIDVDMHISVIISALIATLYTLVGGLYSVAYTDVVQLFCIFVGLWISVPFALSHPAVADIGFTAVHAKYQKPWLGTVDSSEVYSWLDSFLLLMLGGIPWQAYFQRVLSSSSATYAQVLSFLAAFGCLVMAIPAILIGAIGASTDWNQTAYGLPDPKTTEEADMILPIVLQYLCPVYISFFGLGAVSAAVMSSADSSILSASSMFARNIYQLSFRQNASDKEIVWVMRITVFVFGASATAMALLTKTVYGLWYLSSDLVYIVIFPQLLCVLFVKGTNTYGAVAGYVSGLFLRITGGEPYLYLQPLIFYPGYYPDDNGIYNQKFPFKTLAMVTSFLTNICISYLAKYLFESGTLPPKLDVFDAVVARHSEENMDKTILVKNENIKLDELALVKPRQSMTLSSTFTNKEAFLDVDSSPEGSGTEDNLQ
# [3] = target: T1, High affinity choline transporter 1; experiment: human choline transporter blockers, potency – cell-based, 10-point CRC, membrane potential dye, dose response (AID 588401); type: functional;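 further: membrane potential dye fluorescence of choline-evoked depolarization via CHT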
# [4] = target: T1, High affinity choline transporter 1; experiment: human choline transporter radiolabel uptake blockers – cell-based, 3H-choline uptake, CHT LV-AA trafficking mutant, CRC, dose response (AID 602208); type: functional
# [5] = target: Nuclear receptor subfamily 5 group A member 2 (Homo sapiens, UniProt O00482); type: functional, cell-based;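 further: HEK293T cells transfected with LRH-1 and a StAR promoter luciferase reporter; potency for inhibitors that lower LRH-1 driven reporter light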
# [6] = target: Steroidogenic factor 1 (Homo sapiens, UniProt Q13285); experiment: Counterscreen for inverse agonists of the liver receptor homolog-1 (LRH-1; NR5A2): Luminescence-based cell-based high throughput dose response assay to identify inverse agonists of the Steroidogenic Factor 1 Nuclear Receptor (SF1; NR5A1).; type: functional
# [7] = nonselective StAR promoter luciferase inhibitors – cell-based, luminescence, luciferase reporter, counter-screen for LRH-1 inverse agonist project, dose response (AID 651969); type: functional
# [8] = target: DNA (cytosine-5)-methyltransferase 1 (Homo sapiens, UniProt P26358); experiment: inhibition of DNA methylation by DNMT1 – biochemical, fluorescent molecular beacon, confirmation (AID 602386); type: functional
# [9] = cytotoxicity toward MDA-MB-231 breast cancer cells – cell-based, CellTiter-Glo luminescence, cherry-pick, cytotoxicity control for RAD54 inhibitor project, dose response (AID 651692); type: functional
# [10] = acridine orange displacement from DNA – biochemical, fluorescence polarization, cherry-pick, artefact control for RAD54 inhibitor project, dose response (AID 651673); type: functional
# [11] = target: T2, DNA repair and recombination protein RAD54-like (Homo sapiens, UniProt Q92698); experiment: RAD54 Holliday junction migration blockers – biochemical, fluorescence, cherry-picked samples, dose series, confirmation (AID 651657); type: functional
# T2 sequence (Q92698 whole entry): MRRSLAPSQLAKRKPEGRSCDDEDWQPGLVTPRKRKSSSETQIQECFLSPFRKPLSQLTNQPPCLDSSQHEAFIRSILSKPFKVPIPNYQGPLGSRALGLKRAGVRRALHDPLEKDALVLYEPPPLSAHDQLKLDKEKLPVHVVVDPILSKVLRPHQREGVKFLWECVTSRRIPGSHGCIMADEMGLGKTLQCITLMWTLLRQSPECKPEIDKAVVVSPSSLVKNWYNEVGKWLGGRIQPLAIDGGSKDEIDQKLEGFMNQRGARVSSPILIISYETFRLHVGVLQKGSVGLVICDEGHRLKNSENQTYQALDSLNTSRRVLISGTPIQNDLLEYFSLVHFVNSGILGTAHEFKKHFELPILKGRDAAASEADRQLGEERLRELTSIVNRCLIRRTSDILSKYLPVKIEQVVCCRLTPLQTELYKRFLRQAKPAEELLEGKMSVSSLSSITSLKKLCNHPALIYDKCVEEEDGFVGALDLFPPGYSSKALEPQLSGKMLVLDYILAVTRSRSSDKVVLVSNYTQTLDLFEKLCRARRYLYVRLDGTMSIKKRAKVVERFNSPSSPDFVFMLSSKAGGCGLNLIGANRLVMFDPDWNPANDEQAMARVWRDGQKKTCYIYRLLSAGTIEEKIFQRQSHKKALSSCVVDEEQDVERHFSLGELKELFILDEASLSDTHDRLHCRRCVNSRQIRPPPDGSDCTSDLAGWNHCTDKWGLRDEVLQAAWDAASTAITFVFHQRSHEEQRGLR
# [12] = target: SWI/SNF-related matrix-associated actin-dependent regulator of chromatin subfamily A member 2 (Homo sapiens, UniProt P51531); experiment: Luminescence-based cell-based high throughput dose response assay to identify activators of the function of SWI/SNF related, matrix associated, actin dependent regulator of chromatin, subfamily a, member 2 (SMARCA2, BRM).; type: functional
# [13] = Counterscreen for activators of the function of SWI/SNF related, matrix associated, actin dependent regulator of chromatin, subfamily a, member 2 (SMARCA2, BRM): Luminescence-based cell-based high throughput dose response assay to identify non-selective compounds using the VP16 reporter assay.; type: functional
# [14] = target: T3, DNA repair protein RAD52 homolog (Homo sapiens, UniProt P43351); type: functional, biochemical
# T3 sequence (P43351 whole entry): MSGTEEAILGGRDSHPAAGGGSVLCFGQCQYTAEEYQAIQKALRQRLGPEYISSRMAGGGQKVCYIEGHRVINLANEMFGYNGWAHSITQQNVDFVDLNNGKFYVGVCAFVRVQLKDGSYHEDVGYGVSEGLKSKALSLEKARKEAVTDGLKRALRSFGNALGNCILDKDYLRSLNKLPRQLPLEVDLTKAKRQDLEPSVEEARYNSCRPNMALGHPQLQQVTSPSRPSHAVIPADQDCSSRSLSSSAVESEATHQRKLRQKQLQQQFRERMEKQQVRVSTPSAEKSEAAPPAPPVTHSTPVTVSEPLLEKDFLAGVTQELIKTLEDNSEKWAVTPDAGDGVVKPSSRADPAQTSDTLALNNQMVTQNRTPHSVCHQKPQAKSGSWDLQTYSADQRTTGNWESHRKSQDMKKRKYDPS
# Sequence of SWI/SNF-related matrix-associated actin-dependent regulator of chromatin subfamily A member 2 (P51531 whole entry): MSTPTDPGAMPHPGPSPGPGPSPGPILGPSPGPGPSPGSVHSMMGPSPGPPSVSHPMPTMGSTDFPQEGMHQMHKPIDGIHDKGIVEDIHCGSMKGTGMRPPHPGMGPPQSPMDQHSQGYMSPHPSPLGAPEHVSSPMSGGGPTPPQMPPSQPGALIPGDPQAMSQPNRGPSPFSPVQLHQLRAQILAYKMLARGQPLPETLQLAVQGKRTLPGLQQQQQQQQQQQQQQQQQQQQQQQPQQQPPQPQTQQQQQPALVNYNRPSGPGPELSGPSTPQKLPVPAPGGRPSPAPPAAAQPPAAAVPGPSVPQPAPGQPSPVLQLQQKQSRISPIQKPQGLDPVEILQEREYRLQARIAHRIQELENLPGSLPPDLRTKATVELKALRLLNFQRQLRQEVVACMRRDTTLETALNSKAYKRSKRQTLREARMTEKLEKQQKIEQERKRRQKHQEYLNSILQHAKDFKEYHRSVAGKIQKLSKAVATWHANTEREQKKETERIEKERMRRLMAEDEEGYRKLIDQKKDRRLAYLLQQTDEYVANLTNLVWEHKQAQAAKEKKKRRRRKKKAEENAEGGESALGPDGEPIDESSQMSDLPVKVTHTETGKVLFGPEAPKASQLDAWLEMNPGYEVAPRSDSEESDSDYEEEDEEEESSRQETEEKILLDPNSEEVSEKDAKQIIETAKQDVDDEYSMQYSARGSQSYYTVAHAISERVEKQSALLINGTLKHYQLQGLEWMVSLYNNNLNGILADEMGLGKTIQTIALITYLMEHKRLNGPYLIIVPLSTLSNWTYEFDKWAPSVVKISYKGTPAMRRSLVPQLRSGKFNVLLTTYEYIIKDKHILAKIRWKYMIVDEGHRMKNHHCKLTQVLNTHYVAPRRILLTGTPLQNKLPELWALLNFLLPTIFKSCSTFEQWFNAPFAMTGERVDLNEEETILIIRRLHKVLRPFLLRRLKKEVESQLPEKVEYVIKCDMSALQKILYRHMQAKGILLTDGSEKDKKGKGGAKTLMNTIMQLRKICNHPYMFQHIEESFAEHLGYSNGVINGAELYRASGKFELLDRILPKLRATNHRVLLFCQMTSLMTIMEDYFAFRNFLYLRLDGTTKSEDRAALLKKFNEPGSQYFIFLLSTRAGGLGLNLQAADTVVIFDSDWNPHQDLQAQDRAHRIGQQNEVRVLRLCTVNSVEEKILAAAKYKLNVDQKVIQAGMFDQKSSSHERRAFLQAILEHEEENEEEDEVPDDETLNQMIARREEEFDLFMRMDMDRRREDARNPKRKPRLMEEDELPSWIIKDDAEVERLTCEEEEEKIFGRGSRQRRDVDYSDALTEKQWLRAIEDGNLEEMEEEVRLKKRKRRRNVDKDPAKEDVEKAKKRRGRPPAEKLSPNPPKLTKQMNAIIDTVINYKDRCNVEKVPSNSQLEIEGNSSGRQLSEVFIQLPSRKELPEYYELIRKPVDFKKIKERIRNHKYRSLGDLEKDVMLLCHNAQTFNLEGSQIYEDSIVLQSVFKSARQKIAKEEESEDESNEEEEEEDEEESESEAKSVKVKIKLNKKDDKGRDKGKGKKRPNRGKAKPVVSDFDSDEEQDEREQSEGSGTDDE
# Sequence of Nuclear receptor subfamily 5 group A member 2 (O00482 whole entry): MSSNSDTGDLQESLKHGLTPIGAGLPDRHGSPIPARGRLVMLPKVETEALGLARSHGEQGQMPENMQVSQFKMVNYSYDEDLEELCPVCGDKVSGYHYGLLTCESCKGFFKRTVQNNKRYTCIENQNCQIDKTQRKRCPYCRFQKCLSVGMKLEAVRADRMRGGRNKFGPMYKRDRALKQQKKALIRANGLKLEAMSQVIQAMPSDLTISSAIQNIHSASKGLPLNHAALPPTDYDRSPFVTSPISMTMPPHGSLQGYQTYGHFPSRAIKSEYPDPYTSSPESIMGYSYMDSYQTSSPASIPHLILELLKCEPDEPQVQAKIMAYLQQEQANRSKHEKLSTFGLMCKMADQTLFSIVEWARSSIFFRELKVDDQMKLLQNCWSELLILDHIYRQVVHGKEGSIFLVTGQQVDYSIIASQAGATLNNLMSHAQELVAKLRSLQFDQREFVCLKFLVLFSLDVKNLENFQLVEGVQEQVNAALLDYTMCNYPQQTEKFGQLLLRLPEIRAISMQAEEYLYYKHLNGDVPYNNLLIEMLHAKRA
# Sequence of DNA (cytosine-5)-methyltransferase 1 (P26358 whole entry): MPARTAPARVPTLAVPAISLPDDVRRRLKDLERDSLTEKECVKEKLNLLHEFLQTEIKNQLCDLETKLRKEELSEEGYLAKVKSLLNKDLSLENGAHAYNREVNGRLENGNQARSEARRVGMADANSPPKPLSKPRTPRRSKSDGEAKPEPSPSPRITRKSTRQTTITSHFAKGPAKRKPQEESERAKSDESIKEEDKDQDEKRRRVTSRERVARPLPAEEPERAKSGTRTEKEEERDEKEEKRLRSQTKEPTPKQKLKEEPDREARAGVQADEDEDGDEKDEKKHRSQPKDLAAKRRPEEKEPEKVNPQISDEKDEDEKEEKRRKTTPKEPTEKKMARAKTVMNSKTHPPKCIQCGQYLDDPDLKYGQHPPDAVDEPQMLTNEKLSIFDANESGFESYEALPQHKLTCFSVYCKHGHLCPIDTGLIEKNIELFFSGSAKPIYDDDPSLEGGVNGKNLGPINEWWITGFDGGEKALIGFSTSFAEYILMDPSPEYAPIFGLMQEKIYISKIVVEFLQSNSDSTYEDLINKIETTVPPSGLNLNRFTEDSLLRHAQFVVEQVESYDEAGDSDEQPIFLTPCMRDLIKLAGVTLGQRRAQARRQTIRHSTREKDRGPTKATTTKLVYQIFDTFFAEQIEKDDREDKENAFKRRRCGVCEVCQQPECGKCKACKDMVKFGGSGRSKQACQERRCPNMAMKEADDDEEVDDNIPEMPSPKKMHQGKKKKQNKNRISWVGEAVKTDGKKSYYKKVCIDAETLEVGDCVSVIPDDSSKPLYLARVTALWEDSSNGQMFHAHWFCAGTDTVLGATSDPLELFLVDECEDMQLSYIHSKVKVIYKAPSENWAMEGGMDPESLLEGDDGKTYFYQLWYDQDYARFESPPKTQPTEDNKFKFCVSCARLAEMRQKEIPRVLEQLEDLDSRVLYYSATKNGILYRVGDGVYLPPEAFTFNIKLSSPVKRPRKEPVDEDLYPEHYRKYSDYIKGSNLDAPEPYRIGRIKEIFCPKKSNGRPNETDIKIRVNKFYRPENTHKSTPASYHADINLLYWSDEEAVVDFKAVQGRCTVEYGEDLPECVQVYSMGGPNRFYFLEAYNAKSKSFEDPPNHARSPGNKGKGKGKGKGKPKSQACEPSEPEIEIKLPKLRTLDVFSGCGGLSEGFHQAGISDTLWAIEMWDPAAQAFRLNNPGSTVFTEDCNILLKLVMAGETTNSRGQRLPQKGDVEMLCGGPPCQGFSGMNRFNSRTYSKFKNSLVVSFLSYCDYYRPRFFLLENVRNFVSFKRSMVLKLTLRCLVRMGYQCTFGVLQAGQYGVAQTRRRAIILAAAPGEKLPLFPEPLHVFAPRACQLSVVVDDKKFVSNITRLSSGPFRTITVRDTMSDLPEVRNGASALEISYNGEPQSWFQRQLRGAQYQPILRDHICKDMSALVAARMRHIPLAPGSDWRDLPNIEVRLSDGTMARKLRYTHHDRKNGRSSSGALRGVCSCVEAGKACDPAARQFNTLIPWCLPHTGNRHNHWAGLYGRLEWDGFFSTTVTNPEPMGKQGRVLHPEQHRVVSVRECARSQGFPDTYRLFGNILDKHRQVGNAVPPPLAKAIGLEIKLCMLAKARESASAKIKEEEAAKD
# Sequence of Steroidogenic factor 1 (Q13285 whole entry): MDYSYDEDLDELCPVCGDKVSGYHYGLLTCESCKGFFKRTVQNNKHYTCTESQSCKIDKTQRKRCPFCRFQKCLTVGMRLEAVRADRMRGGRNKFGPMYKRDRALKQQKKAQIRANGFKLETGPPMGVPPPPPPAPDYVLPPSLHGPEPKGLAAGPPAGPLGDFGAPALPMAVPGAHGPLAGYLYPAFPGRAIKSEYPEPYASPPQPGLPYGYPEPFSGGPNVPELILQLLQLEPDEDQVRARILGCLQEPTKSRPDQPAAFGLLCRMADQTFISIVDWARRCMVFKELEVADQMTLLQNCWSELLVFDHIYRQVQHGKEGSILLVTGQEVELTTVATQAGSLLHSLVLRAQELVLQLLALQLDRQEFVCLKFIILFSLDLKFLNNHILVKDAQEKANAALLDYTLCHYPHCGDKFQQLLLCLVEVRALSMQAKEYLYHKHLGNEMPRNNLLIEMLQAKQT
# Sequence of ADP-ribosylation factor GTPase-activating protein 1 (Q62848 whole entry): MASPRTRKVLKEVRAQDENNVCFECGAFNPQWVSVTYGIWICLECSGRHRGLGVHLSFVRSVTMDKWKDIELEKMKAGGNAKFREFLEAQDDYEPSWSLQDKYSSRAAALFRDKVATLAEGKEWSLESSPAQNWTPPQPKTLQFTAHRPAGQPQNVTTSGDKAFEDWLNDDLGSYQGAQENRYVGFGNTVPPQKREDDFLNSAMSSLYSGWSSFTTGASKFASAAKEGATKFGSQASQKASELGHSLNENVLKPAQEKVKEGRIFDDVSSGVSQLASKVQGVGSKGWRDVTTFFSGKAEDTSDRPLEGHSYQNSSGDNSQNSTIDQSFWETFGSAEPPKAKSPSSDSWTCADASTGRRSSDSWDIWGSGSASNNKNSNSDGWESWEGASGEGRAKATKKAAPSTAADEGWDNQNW
smiles,measurement,setting,value
CCCOc1ccc(/C=N/NC(=O)c2ccc(Cn3cc([N+](=O)[O-])cn3)o2)cc1,IC50,[1],49 µM (inactive)
O=C(Nc1ccc(S(=O)(=O)Nc2cnc3ccccc3n2)cc1)c1ccc(Cl)cc1Cl,IC50,[2],9.55 µM (active)
same,IC50,[3],3.25 µM (active)
same,IC50,[4],2.82 µM (active)
CCCc1cc(=O)oc2c(C)c(OCC(=O)NCCCn3ccnc3)ccc12,IC50,[5],35.9 µM (inactive)
same,IC50,[6],10.8 µM (inactive)
same,IC50,[7],35.9 µM (inactive)
COc1ccc2nc(C)cc(Nc3ccc(N4CCN(C)CC4)cc3)c2c1,IC50,[8],11.4 µM (active)
same,AC50,[9],52 µM (inactive)
same,AC50,[10],62 µM (active)
same,AC50,[11],2.45 µM (active)
same,EC50,[12],> 3.38 µM (active)
same,EC50,[13],> 10.1 µM (inactive)
same,AC50,[14],1.27 µM (active)
